Test results taken from PubChem BioAssay AID248 (DTP/NCI, 2004).
Several values for one entry are separate records, joined by “and”; a condition that tells them apart may be missing. Identical values can stand only once. Toxic doses and inconclusive results are not listed. No stated cut-off is given here; in the data, active means T/C of 150% or more; inactive means T/C below 125%.

System: L1210 leukemia ip in BDF1 mice, survival T/C
Experiment: NCI In Vivo Anticancer Drug Screen. Data for tumor model L1210 Leukemia (intraperitoneal) in B6D2F1 (BDF1) mice
Settings: endpoint: mean survival time, higher = longer survival
Procedure, shortened: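 Transplantable tumor model; survival measured in treated vs vehicle control mice. Value = treated/control.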

[1] = dose: 100.0 mg/kg/injection, schedule: Q01DX001 (ip), vehicle: saline
[2] = dose: 100.0 mg/kg/injection, schedule: Q04DX003 (ip), vehicle: saline
[3] = dose: 200.0 mg/kg/injection, schedule: Q01DX001 (ip), vehicle: saline
[4] = dose: 200.0 mg/kg/injection, schedule: Q04DX003 (ip), vehicle: saline
[5] = dose: 400.0 mg/kg/injection, schedule: Q01DX001 (ip), vehicle: saline
[6] = dose: 400.0 mg/kg/injection, schedule: Q04DX003 (ip), vehicle: saline
[7] = dose: 100.0 mg/kg/injection, schedule: Q01DX001 (ip), vehicle: carboxymethylcellulose (CMC)
[8] = dose: 200.0 mg/kg/injection, schedule: Q01DX001 (ip), vehicle: carboxymethylcellulose (CMC)
[9] = dose: 400.0 mg/kg/injection, schedule: Q01DX001 (ip), vehicle: carboxymethylcellulose (CMC)
[10] = dose: 100.0 mg/kg/injection, schedule: Q04DX003 (ip), vehicle: saline with Tween-80
[11] = dose: 200.0 mg/kg/injection, schedule: Q04DX003 (ip), vehicle: saline with Tween-80
[12] = dose: 400.0 mg/kg/injection, schedule: Q04DX003 (ip), vehicle: saline with Tween-80
[13] = dose: 100.0 mg/kg/injection, schedule: Q01DX009 (ip), vehicle: Klucel (hydroxypropylcellulose) (HPC)
[14] = dose: 200.0 mg/kg/injection, schedule: Q01DX009 (ip), vehicle: Klucel (hydroxypropylcellulose) (HPC)
[15] = dose: 400.0 mg/kg/injection, schedule: Q01DX009 (ip), vehicle: Klucel (hydroxypropylcellulose) (HPC)
[16] = dose: 100.0 mg/kg/injection, schedule: Q04DX002 (ip), vehicle: Klucel (hydroxypropylcellulose) (HPC)
[17] = dose: 200.0 mg/kg/injection, schedule: Q04DX002 (ip), vehicle: Klucel (hydroxypropylcellulose) (HPC)
[18] = dose: 400.0 mg/kg/injection, schedule: Q04DX002 (ip), vehicle: Klucel (hydroxypropylcellulose) (HPC)
[19] = dose: 100.0 mg/kg/injection, schedule: Q01DX009 (ip), vehicle: saline
[20] = dose: 100.0 mg/kg/injection, schedule: Q04DX003 (ip), vehicle: Klucel (hydroxypropylcellulose) (HPC)
[21] = dose: 200.0 mg/kg/injection, schedule: Q04DX003 (ip), vehicle: Klucel (hydroxypropylcellulose) (HPC)
[22] = dose: 400.0 mg/kg/injection, schedule: Q04DX003 (ip), vehicle: Klucel (hydroxypropylcellulose) (HPC)

Measured: T/C

CCCCOc1ccc(/C=N/NC(=O)CNC(=O)Nc2cccc(C(F)(F)F)c2)cc1
inactive: dose: 100.0 mg/kg/injection, schedule: Q01DX009 (ip), vehicle: gum acacia 86 % of control | dose: 200.0 mg/kg/injection, schedule: Q01DX009 (ip), vehicle: gum acacia 93 % of control | dose: 400.0 mg/kg/injection, schedule: Q01DX009 (ip), vehicle: gum acacia 96 % of control

CCCC1=CN(Cc2ccccc2)c2ccccc2C1
inactive: [1] 96 % of control | [2] 97 % of control | [3] 96 % of control | [4] 97 % of control | [5] 97 % of control | [6] 93 % of control

Cc1ccc(S(=O)(=O)C2CCCC2Cl)cc1 (stereo unspecified)
inactive: [7] 109 % of control | [1] 107 % of control | [8] 104 % of control | [3] 104 % of control | [9] 104 % of control | [5] 87 % of control

CN(Cc1c(S)ccc2ccccc12)Cc1c(S)ccc2ccccc12
inactive: [1] 94 % of control | [3] 98 % of control | [5] 96 % of control

O[C@H](c1cc(C(F)(F)F)nc2c(C(F)(F)F)cccc12)[C@@H]1CCCCN1
inactive: dose: 12.5 mg/kg/injection, schedule: Q01DX009 (ip), vehicle: Klucel (hydroxypropylcellulose) (HPC) 94 % of control | dose: 12.5 mg/kg/injection, schedule: Q04DX003 (ip), vehicle: saline 98 % of control | dose: 25.0 mg/kg/injection, schedule: Q01DX009 (ip), vehicle: Klucel (hydroxypropylcellulose) (HPC) 103 % of control | dose: 25.0 mg/kg/injection, schedule: Q04DX003 (ip), vehicle: saline 98 % of control | dose: 50.0 mg/kg/injection, schedule: Q04DX003 (ip), vehicle: saline 97 % of control

Nc1ccc(C(=O)Oc2ccc([N+](=O)[O-])cc2)cc1
inactive: [10] 98 % of control | [11] 88 % of control | [12] 86 % of control

CN(C)S(=O)(=O)c1ccc(CCCCCCc2ccc(S(=O)(=O)N(C)C)cc2)cc1
inactive: [7] 96 % of control | [8] 102 % of control | [9] 91 % of control

CC([NH-])=O.CC([NH-])=O.[Pt+2]
inactive: dose: 100.0 mg/kg/injection, schedule: Q01DX009 (ip), vehicle: water 105 % of control | dose: 100.0 mg/kg/injection, schedule: Q04DX003 (ip), vehicle: water 101 % of control | dose: 200.0 mg/kg/injection, schedule: Q01DX009 (ip), vehicle: water 95 % of control | dose: 200.0 mg/kg/injection, schedule: Q04DX003 (ip), vehicle: water 103 % of control

CCCCCCCCCCCCCCCC(=O)OC(C)CCC1CCCO1 (stereo unspecified)
inactive: [1] 90 % of control | [3] 95 % of control | [5] 90 % of control

CC1(C)OC2C(COC(N)=O)OC(n3cnc4c(=O)[nH]c(N)nc43)C2O1 (stereo unspecified)
inactive: dose: 100.0 mg/kg/injection, schedule: Q01DX005 (ip), vehicle: saline 105 % of control | dose: 200.0 mg/kg/injection, schedule: Q01DX005 (ip), vehicle: saline 103 % of control

N#CCCN(Cc1ccncc1)CN1C(=O)c2ccccc2C1=O
inactive: [13] 101 % of control | [14] 87 % of control | [15] 96 % of control

CCOC(=O)NC(C)(C)CN(C(=O)OCC)c1ccccc1
inactive: [10] 111 % of control | [11] 108 % of control | [12] 106 % of control

CC#CCCC(=O)OCC
inactive: [16] 104 % of control | [17] 106 % of control | [18] 95 % of control

CCN(CC)CC(=O)NCC(CCN1CCCCC1)(c1cccc2ccccc12)C(C)C (stereo unspecified)
inactive: dose: 25.0 mg/kg/injection, schedule: Q01DX009 (ip), vehicle: saline 101 % of control | dose: 50.0 mg/kg/injection, schedule: Q01DX009 (ip), vehicle: saline 115 % of control | [19] 112 % of control

CCOc1ccccc1NC(=O)COc1ccc(Cl)cc1
inactive: [13] 98 % of control | [20] 90 % of control | [14] 103 % of control | [21] 101 % of control | [15] 97 % of control | [22] 108 % of control

COC(=O)c1c(Cl)c(Cl)c(Cl)c(Cl)c1C(=O)OC
inactive: [13] 96 % of control | dose: 100.0 mg/kg/injection, schedule: Q01DX009 (ip), vehicle: saline with Tween-80 96 % of control | [20] 95 % of control | [10] 100 % of control | [14] 102 % of control | dose: 200.0 mg/kg/injection, schedule: Q01DX009 (ip), vehicle: saline with Tween-80 91 % of control | [21] 96 % of control | [11] 100 % of control | [15] 107 % of control | [22] 95 % of control

O=[N+]([O-])c1ccc(/C=N/N2CCOCC2)s1
inactive: [2] 102 % of control | [4] 97 % of control | [6] 102 % of control

CCCCCCCCC1SC1CCCCCCCC(=O)O (stereo unspecified)
inactive: [16] 103 % of control | [17] 100 % of control | [18] 95 % of control

NC(=O)NC(NC(N)=O)C(Cl)(Cl)Cl
inactive: [19] 101 % of control | [10] 100 % of control | dose: 200.0 mg/kg/injection, schedule: Q01DX009 (ip), vehicle: saline 102 % of control | [11] 100 % of control | dose: 400.0 mg/kg/injection, schedule: Q01DX009 (ip), vehicle: saline 102 % of control | [12] 100 % of control

CCCCCCCC(=O)N(CCCCC)CCCCC
inactive: [7] 99 % of control | dose: 100.0 mg/kg/injection, schedule: Q01DX009 (ip), vehicle: carboxymethylcellulose (CMC) 93 % of control and 101 % of control | dose: 100.0 mg/kg/injection, schedule: Q04DX002 (ip), vehicle: carboxymethylcellulose (CMC) 97 % of control | dose: 100.0 mg/kg/injection, schedule: Q04DX003 (ip), vehicle: carboxymethylcellulose (CMC) 101 % of control | [8] 96 % of control | dose: 200.0 mg/kg/injection, schedule: Q01DX009 (ip), vehicle: carboxymethylcellulose (CMC) 97 % of control and 90 % of control | dose: 200.0 mg/kg/injection, schedule: Q04DX002 (ip), vehicle: carboxymethylcellulose (CMC) 107 % of control | dose: 200.0 mg/kg/injection, schedule: Q04DX003 (ip), vehicle: carboxymethylcellulose (CMC) 98 % of control | [9] 91 % of control | dose: 400.0 mg/kg/injection, schedule: Q04DX002 (ip), vehicle: carboxymethylcellulose (CMC) 96 % of control | dose: 400.0 mg/kg/injection, schedule: Q04DX003 (ip), vehicle: carboxymethylcellulose (CMC) 102 % of control

Nc1ccc(CCCCc2ccccc2)c(Cl)c1
inactive: dose: 75.0 mg/kg/injection, schedule: Q01DX001 (ip), vehicle: saline 90 % of control | dose: 150.0 mg/kg/injection, schedule: Q01DX001 (ip), vehicle: saline 96 % of control

Cc1ccc(/C(=N\N=C(N)N)C2CC2)cc1
inactive: dose: 15.0 mg/kg/injection, schedule: Q01DX Z (ip), vehicle: methylcellulose (MC) 102 % of control | dose: 30.0 mg/kg/injection, schedule: Q01DX Z (ip), vehicle: methylcellulose (MC) 113 % of control | dose: 60.0 mg/kg/injection, schedule: Q01DX Z (ip), vehicle: methylcellulose (MC) 112 % of control | dose: 120.0 mg/kg/injection, schedule: Q01DX Z (ip), vehicle: methylcellulose (MC) 97 % of control | dose: 120.0 mg/kg/injection, schedule: Q01DX Z (oral), vehicle: methylcellulose (MC) 96 % of control | dose: 240.0 mg/kg/injection, schedule: Q01DX Z (ip), vehicle: methylcellulose (MC) 99 % of control | dose: 240.0 mg/kg/injection, schedule: Q01DX Z (oral), vehicle: methylcellulose (MC) 98 % of control | dose: 480.0 mg/kg/injection, schedule: Q01DX Z (oral), vehicle: methylcellulose (MC) 90 % of control

CCCCCCCCCCCCCCCOc1cc(C=O)ccc1OC
inactive: dose: 100.0 mg/kg/injection, schedule: Q01DX001 (ip), vehicle: Klucel (hydroxypropylcellulose) (HPC) 87 % of control | dose: 200.0 mg/kg/injection, schedule: Q01DX001 (ip), vehicle: Klucel (hydroxypropylcellulose) (HPC) 87 % of control
